Data reported in ChEMBL document CHEMBL1154394, “The preparation of 2,6-disubstituted pyridinyl phosphine oxides as novel anti-cancer agents” (Bioorg Med Chem Lett, 2009).
The source made the active and inactive calls. The rule behind the calls is not given here.

Assays:
MDA-MB-231 [1] = assay: Cytotoxicity against human MDA-MB-231 cells after 48 hrs by one step ATP lite assay; assay type: functional, cell-based
SK-HEP1 [2] = assay: Cytotoxicity against human SKHEP1 cells after 48 hrs by one step ATP lite assay; assay type: functional, cell-based
[3] = Cytotoxicity against non malignant human hematological disorder bone marrow cells after 48 hrs by one step ATP lite assay; assay type: cell-based; conditions: Bone marrow cell
MDA-MB-231 [4] = assay: Induction of apoptosis in human MDA-MB-231 cells assessed as morphological changes at 60 uM after 48 hrs; assay type: functional, cell-based
SK-HEP1 [5] = assay: Growth inhibition of human SKHEP1 cells at 70 uM after 48 hrs by one step ATP lite assay in presence of z-VAD-fmk; assay type: functional, cell-based
MDA-MB-231 [6] = assay: Growth inhibition of human MDA-MB-231 cells at 70 uM after 48 hrs by one step ATP lite assay in presence of z-VAD-fmk; assay type: functional, cell-based
SK-HEP1 [7] = assay: Induction of apoptosis in human SKHEP1 cells assessed as morphological changes at 60 uM after 48 hrs; assay type: functional, cell-based
SK-HEP1 [8] = assay: Growth inhibition of human SKHEP1 cells at 100 uM after 48 hrs by one step ATP lite assay; assay type: functional; parameters: scale not given: the % may be the effect or the level left
MDA-MB-231 [9] = assay: Growth inhibition of human MDA-MB-231 cells at 100 uM after 48 hrs by one step ATP lite assay; assay type: functional; conditions: MDA-MB-231, 48 h, read-out: GI

COc1cc(P(=O)(c2ccccc2)c2ccccc2)cc(OC)n1
Activity (MDA-MB-231 [1]): Active | Activity (SK-HEP1 [2]): Active

COc1nc(OC)c(Br)c(P(=O)(c2ccccc2)c2ccccc2)c1Br
IC50 [3]: 54.2 µM | Activity (MDA-MB-231 [4]): Active | Activity (SK-HEP1 [5]): inactive | Activity (MDA-MB-231 [6]): inactive | IC50 (MDA-MB-231 [1]; MDA-MB-231, 48 h): 47.5 µM | IC50 (SK-HEP1 [2]; SK-HEP1, 48 h): 38.5 µM | Activity (SK-HEP1 [7]): Active

COc1cc(P(=O)(c2ccccc2)c2ccccc2)c(Br)c(OC)n1
Activity (MDA-MB-231 [4]): Active | Activity (SK-HEP1 [8]): 30% | inhibition of growth at 100 µM (MDA-MB-231 [9]): 30% | Activity (SK-HEP1 [7]): Active
